Source: patent US9085527B2, “Fatty acid acylated salicylates and their uses” (Catabasis Pharmaceuticals, Inc., priority 2008, dated 2015)
Where two headings read alike, the source gives them in different places.

Columns and labels:
NFκB = assay: NFκB-driven luciferase reporter in RAW 264.7 cells challenged with LPS; type: cell-based, mouse; details: read-out: NFκB Inhibitory Activity, IC50 μM
Experimental: RAW 264.7 cells transfected with an NFκB-driven luciferase reporter are plated in 96 well plates. Cells are treated with Vehicle (0.1% ethanol) or test compounds for 2 hours. As a positive control for inhibition of NFκB signaling, 6 wells are treated with 10 μM dexamethasone. Cells are then challenged with 200 ng/mL LPS for 3 hours in the presence of test compounds. A subset of wells treated with vehicle should remain unstimulated with LPS to determine the floor signal of the assay. NFκB driven luciferase activity is developed by addition of BriteLite luciferase kit (Perkin-Elmer) and measured using a Victor V plate reader. NFκB activity (luciferase activity) for each treatment was normalized to Vehicle wells treated with LPS (% NFκB Response). AlamarBlue was used to monitor cell viability to ensure that inhibition of luciferase signal was not a result of compound cytotoxicity.
RAW 264.7 cells stably expressing a 3×NF-κB response element-driven luciferase reporter were seeded into 96 well plates. After 18 hours, cells were pre-treated with compounds of the invention for 2 hours, and then stimulated with LPS (lipopolysaccharide, 200 ng/mL) or vehicle control for 3 h in the presence of the compounds of the invention. A set of six vehicle was left unstimulated with LPS in order to measure the assay floor. AlamarBlue viability dye (Invitrogen) was added to cells simultaneously with the delivery of LPS (final AlamarBlue concentration of 10%). After the 3 h incubation period with LPS, cell viability was measured by reading fluorescence (excitation 550 nm, emission 595 nm) with a Perkin Elmer Victor V plate reader. Then cell media was aspirated from each well. Luciferase signal was then developed by addition of the Britelite Plus reagent (Perkin Elmer). Luciferase activity was measured with the Perkin Elmer Victor V plate reader. NF-κB activity was expressed as a percent of the vehicle control wells (stimulated with LPS). Compounds were tested at 6 dose point titrations in triplicate to determine IC50 values.

[1] = test system: TNFα secretion in RAW 264.7 macrophages; assay: TNFα release assay in RAW 264.7 macrophages stimulated with LPS; type: cell-based, mouse
Experimental: The purpose of this assay is to measure the ability of small molecules to inhibit the secretion of TNFα in cultured macrophages stimulated with lipopolysaccharide (LPS). […] Dexamethasone, a potert agonist of the glucocorticoid receptor is used a positive control for inhibition of TNFα release.
Day 1: Seed RAW 264.7 macrophages into 96 well culture plates. Remove culture media from RAW 264.7 cell growing in a 75 mm^2 tissue culture flask (cells should be at ˜70% confluence) and add 10 mL of warmed complete growth media (DMEM+10% FBS+1× pen/step). The cells are scraped into suspension using a sterile plate scraper and homogenized by pipetting up and down with a 10 mL serological pipette. The cell concentration is determined using a clinical hematoctyometer. Cells are then diluted to 150,000 cells per mL into growth media. […]
Day 2: The test compound sample plate is prepared. […] Add 100 μl of Celltiter-glo reagent to each well of the cell culture plate and afterwards measure the luminescence signal (CPS) of the plate using the Victor 5 plate reader (0.3 second read; 60 second plate shaking prior to read). […]
Use 20 μl of media supernatant per well for TNFα ELISA. […] After addition of stop solution, measure OD 450 nm using the Victor 5 plate reader (0.1 second/well scan). […]

[2] = Mus musculus, RAW264.7, 200 ng/mL LPS for 3 hours

In the case of CC/C=C\C/C=C\C/C=C\C/C=C\C/C=C\C/C=C\CCC(=O)Nc1ccc(O)c(C(=O)O)c1 [III-1], the IC50 (NFκB; 200 ng/mL LPS for 3 hours) is reported as < 200 µM and the IC50 ([1]; 10 ng/mL LPS, 3 hours, TNFα ELISA, read-out: TNFα Secrection, IC50 μM) is reported as 146 µM.

CC/C=C\C/C=C\C/C=C\C/C=C\C/C=C\C/C=C\CCC(=O)NC(CC(C)C)C(=O)Oc1cc(C(F)(F)F)ccc1C(=O)OCC (stereo not drawn) [Ii-5, ethyl 2-(2-(4Z,7Z,10Z,13Z,16Z,19Z)-docosa-4,7,10,13,16,19-hexaenamido-4-methylpentanoyloxy)-4-(trilluoromethyl)benzoate] was tested, and the IC50 (NFκB; [2]) was < 200 µM.

For O=C(O)c1ccccc1O [SA, salicylic acid, reference compound], the IC50 (NFκB; [2]) was > 200 µM.

In the case of CC/C=C\C/C=C\C/C=C\C/C=C\C/C=C\C/C=C\CCC(=O)Oc1cc(C(F)(F)F)ccc1C(=O)OCC [VIc-3, ethyl 2-((4Z,7Z,10Z,13Z,16Z,19Z)-docosa-4,7,10,13,16,19-hexaenoyloxy)-4-(trilluoromethyl)benzoate], the IC50 (NFκB; [2]) is reported as < 200 µM.

With O=C(O)c1ccccc1O [salicylate, Salicylate] the “inhibition of the production of TNFα (in words, FIG. 2)” value ([1]; LPS) was “do not appreciably inhibit”.
